Test results from patent US9606120B2, “Interfering peptides and method for detecting microorganisms” (BIOMÉRIEUX, priority 2012, dated 2017).

System: antibodies directed against the HCV Core, NS3 and NS4 proteins
Assay: Vidas anti-HCV antibody immunoenzymatic test (Operating Mode 1) carried out with interfering peptide added
Parameters: species or system human; key to Index: signal / standard S1 value; index ≥1 positive, <1 negative
Conditions: for Index: pos indices ≧1
Method: The disposable tip (SPR®) acts both as a solid phase and as a pipetting system. The surface of the tip is coated with antigens for the detection of antibodies directed against the HCV Core, NS3 and NS4 proteins. In a first step, the sample is diluted, and then suctioned up and down inside the tip. The anti-HCV antibodies present in the sample will bind to the antigens present inside the tip. Washing steps remove the unbound compounds. During the second step, (mouse) anti-human immunoglobulin (anti-IgG) monoclonal IgGs in Fab′ form, conjugated to recombinant alkaline phosphatase, are suctioned up and down inside the tip and will bind to the anti-HCV human Igs from the sample tested, bound to the antigens of the solid phase. Washing steps again remove the unbound compounds. […] The value of the fluorescence signal is proportional to the concentration of the antibody present in the sample. At the end of the test, the results are calculated automatically in the form of an index by the instrument, by dividing the value obtained by the value of the standard S1 brought back to 1 (value stored in the instrument). Thus, a sample of which the index is greater than or equal to 1 is considered to be positive by the immunoenzymatic test (presence of anti-HCV antibodies) and a sample of which the index is less than 1 is considered to be negative (absence of anti-HCV antibodies). In the paragraphs which follow, this HCV-antibody assay procedure will be referred to as “Operating Mode 1”, which corresponds to the assaying of anti-HCV antibodies without interfering peptide.
Several hundred serum samples, negative for HCV infection and originating from the Rhône-Alpes “Centres de Transfusion Sanguine” [Blood Banks], were screened in order to identify the samples which posed an interference problem. To do this, the samples were assayed according to Operating Mode 1 using the Vidas automated device. Only the sera that were positive according to Operating Mode 1 (index ≧1) were selected.
Such a difference between the result of Operating Mode 1 and that of the negative status established by the “Centres de Transfusion Sanguine” [Blood Banks] makes it possible to select the false-positive sera posing an interference problem.
Table 1 gives, for seven sera posing an interference problem and for the positive control C1, the results of assays carried out according to “Operating Mode 1” with or without the presence of the peptide V7E (SEQ ID No 2) or of the peptide Y7E (SEQ ID No 1). These peptides were added at a concentration of 5 μg/ml during the first step of the immunoenzymatic test protocol which corresponds to the dilution of the sample to be tested and the incubation thereof with the antigens present on the solid phase.
Likewise, table 2 gives, for two other sera posing an interference problem and for the positive control, the results of assays carried out according to Operating Mode 1 of the anti-HCV antibody detection protocol, with or without the presence of the peptide E8E (SEQ ID No 4), of the peptide A8E (SEQ ID No 3), or else of the peptide A6M (SEQ ID No 9). These peptides were added at a concentration of 1 μg/ml during the first step of the immunoenzymatic test protocol, which corresponds to the dilution of the sample to be tested, and the incubation thereof with the antigens present on the solid phase.

[1] = false-positive serum 295 (sample with interference), peptide 1 μg/ml in first step
[2] = false-positive serum F25 (sample with interference), peptide 1 μg/ml in first step
[3] = positive control C1 (commercial serum pool), peptide 1 μg/ml in first step
[4] = two sera posing an interference problem, peptide 1 μg/ml
[5] = false-positive serum 175 1811 (sample with interference), peptide 5 μg/ml in first step
[6] = false-positive serum 284 2408 (sample with interference), peptide 5 μg/ml in first step
[7] = false-positive serum 498 (sample with interference), peptide 5 μg/ml in first step
[8] = false-positive serum 801 1409 (sample with interference), peptide 5 μg/ml in first step
[9] = false-positive serum F53 3009 (sample with interference), peptide 5 μg/ml in first step
[10] = false-positive serum H48 (sample with interference), peptide 5 μg/ml in first step
[11] = false-positive serum M43 (sample with interference), peptide 5 μg/ml in first step
[12] = positive control C1 (commercial serum pool), peptide 5 μg/ml in first step
[13] = seven sera posing an interference problem, peptide 5 μg/ml

Row | Sequence | Index [1] | Index [2] | Index [3] | sera in which the interference is neutralized [4] | Index [5] | Index [6] | Index [7] | Index [8] | Index [9] | Index [10] | Index [11] | Index [12] | sera in which the interference is neutralized [13]
1 | ECSQHLPYIE (HCV) [E8E, amino acids 53-54 of HCV NS4A fused to amino acids 1-8 of HCV NS4B] | 0.90 | 0.85 | 2.92 | 2/2 | – | – | – | – | – | – | – | – | –
2 | YSPTHYVPE (staphylococcus) [Y7E] | – | – | – | – | 0.47 | 0.86 | 0.14 | 0.71 | 0.32 | 0.88 | 0.17 | 3.02 | totally neutralize the interference in all the sera
3 | AQKRLAPYIE (Streptoccus) [A8E, amino acids 64-73 of Streptococcus pneumoniae ribosomal small subunit methyltransferase H protein] | 0.95 | 0.41 | 3.02 | 2/2 | – | – | – | – | – | – | – | – | –
4 | APYIEKGM (Streptococcus) [A6M, Streptococcus pneumoniae peptide, not according to the invention, used as a negative control, reference compound] | 1.04 | 2.90 | 3.05 | does not make it possible to neutralize the interference, in any of the sera | – | – | – | – | – | – | – | – | –
5 | VSPTHYVPE (HCV) [V7E, amino acids 218-226 of the NS4B protein of HCV] | – | – | – | – | 0.49 | 1.51 | 0.35 | 1.04 | 0.39 | 1.17 | 0.42 | 3.06 | 4/7
